The record followed here is PubChem BioAssay AID1745844 (Carcinogenic Potency Database (CPDB), 2022).

Active and inactive are the calls of the source. The rule behind the calls is not given here.

The test system of the data set is rodent lifetime carcinogenesis bioassay, tumor incidence TD50. The experiment in a line: chronic cancer bioassays in animals – CPDB, compiled studies (AID 1745844).

By TD50 is commonly meant the 50% point of the dose-response relation for the toxic effect studied. As to `CC1=CC(=C(c2ccc(N)cc2)c2ccc(N)cc2)C=CC1=N`, the carcinogen call by setting is: (hamster, strain Syrian Golden, females, by gavage, site: any site (literature study), lesion: several types, types named in the paper, dosed 68 weeks, study length 68 weeks) “negative (inactive)”; (hamster, strain Syrian Golden, males, by gavage, site: any site (literature study), lesion: several types, types named in the paper, dosed 84 weeks, study length 84 weeks) “negative (inactive)”; (rat, strain Sprague-Dawley, females, by gavage, site: any site (literature study), lesion: several types, types named in the paper, dosed 107 weeks, study length 107 weeks) “negative (inactive)”; (rat, strain Sprague-Dawley, males, by gavage, site: any site (literature study), lesion: several types, types named in the paper, dosed 111 weeks, study length 111 weeks) “negative (inactive)”. Besides, the TD50 (hamster, strain Syrian Golden, males, by gavage, site: lung, lesion: bronchiolar adenoma, dosed 84 weeks, study length 84 weeks) is 2020 mg/kg/day (inactive).

As for `NNc1nc(-c2ccc(N)cc2)cs1`, the TD50 reads like this: (mouse, strain Swiss, females, in feed, site: all sites, lesion: lymphocytic leukemia, dosed 46 weeks, study length 66 weeks) 11.3 mg/kg/day; (mouse, strain Swiss, females, in feed, site: any site (literature study), lesion: several types, types named in the paper, dosed 46 weeks, study length 66 weeks) 11.3 mg/kg/day; (rat, strain Sprague-Dawley, females, in feed, site: all sites, lesion: lymphoblastic lymphoma, dosed 46 weeks, study length 75 weeks) 7.09 mg/kg/day; (rat, strain Sprague-Dawley, females, in feed, site: any site (literature study), lesion: several types, types named in the paper, dosed 46 weeks, study length 75 weeks) 0.582 mg/kg/day; (rat, strain Sprague-Dawley, females, in feed, site: mammary gland, lesion: adenocarcinoma, dosed 46 weeks, study length 75 weeks) 1.02 mg/kg/day; (rat, strain Sprague-Dawley, females, in feed, site: mammary gland, lesion: several types, types named in the paper, dosed 46 weeks, study length 75 weeks) 1.03 mg/kg/day.

As for `OO`, the TD50 reads like this: (mouse, strain C57BL/6J, females, in drinking water, site: duodenum, lesion: adenoma, dosed 100 weeks, study length 100 weeks) 2010 mg/kg/day; (mouse, strain C57BL/6J, females, in drinking water, site: duodenum, lesion: carcinoma, dosed 100 weeks, study length 100 weeks) 7540 mg/kg/day; (mouse, strain C57BL/6J, females, in drinking water, site: duodenum, lesion: several types, types named in the paper, dosed 100 weeks, study length 100 weeks) 7830 mg/kg/day; (mouse, strain C57BL/6J, males, in drinking water, site: duodenum, lesion: adenoma, dosed 100 weeks, study length 100 weeks) 7350 mg/kg/day; (mouse, strain C57BL/6J, males, in drinking water, site: duodenum, lesion: carcinoma, dosed 100 weeks, study length 100 weeks) 15000 mg/kg/day; (mouse, strain C57BL/6J, males, in drinking water, site: duodenum, lesion: several types, types named in the paper, dosed 100 weeks, study length 100 weeks) 4800 mg/kg/day.

Turning to `CN(N=O)c1ccc(C=Cc2ccnc3ccccc23)cc1`, the TD50 is 0.468 mg/kg/day (rat, strain Fischer, females, in feed, site: liver, lesion: hyperplastic nodule, dosed 34 weeks, study length 52 weeks); 4.37 mg/kg/day (rat, strain Fischer, males, in feed, site: liver, lesion: carcinoma, dosed 34 weeks, study length 52 weeks); 1.38 mg/kg/day (rat, strain Fischer, males, in feed, site: liver, lesion: hyperplastic nodule, dosed 34 weeks, study length 52 weeks).

Turning to `CC(C)Oc1ccccc1OC(=O)N(C)N=O`, the TD50 by setting is: (rat, strain Sprague-Dawley, males, by gavage, site: forestomach, lesion: carcinoma, dosed 31 weeks, study length 90 weeks) 0.434 mg/kg/day; (rat, strain Sprague-Dawley, males, by gavage, site: forestomach, lesion: one or several types, types not named, dosed 31 weeks, study length 90 weeks) 0.364 mg/kg/day.

In the case of `CN(C)CCN(C)N=O`, the TD50 is 21 mg/kg/day (hamster, strain Syrian Golden, females, by gavage, site: colon, lesion: several types, types named in the paper, dosed 61 weeks, study length 106 weeks); 44 mg/kg/day (hamster, strain Syrian Golden, females, by gavage, site: liver, lesion: hepatocellular tumor, dosed 61 weeks, study length 106 weeks); 9.45 mg/kg/day (hamster, strain Syrian Golden, females, by gavage, site: lung, lesion: alveolar/bronchiolar adenoma, dosed 61 weeks, study length 106 weeks); 9.45 mg/kg/day (hamster, strain Syrian Golden, females, by gavage, site: nasal mucosa, lesion: malignant tumor, dosed 61 weeks, study length 106 weeks); 2.76 mg/kg/day (hamster, strain Syrian Golden, females, by gavage, site: nasal mucosa, lesion: several types, types named in the paper, dosed 61 weeks, study length 106 weeks); 38.7 mg/kg/day (hamster, strain Syrian Golden, males, by gavage, site: colon, lesion: adenocarcinoma, dosed 61 weeks, study length 106 weeks). Also, the TD50 was 11.7 mg/kg/day (hamster, strain Syrian Golden, males, by gavage, site: liver, lesion: hepatocellular tumor, dosed 61 weeks, study length 106 weeks); 38.7 mg/kg/day (hamster, strain Syrian Golden, males, by gavage, site: nasal mucosa, lesion: malignant tumor, dosed 61 weeks, study length 106 weeks); 6.25 mg/kg/day (hamster, strain Syrian Golden, males, by gavage, site: nasal mucosa, lesion: several types, types named in the paper, dosed 61 weeks, study length 106 weeks).

As for `CN(C)N=Nc1nc[nH]c1C(N)=O`, the TD50 by setting is: (mouse, strain Swiss, females, i.p., site: all sites, lesion: lymphosarcoma, dosed 26 weeks, study length 61 weeks) 8 mg/kg/day; (mouse, strain Swiss, females, i.p., site: any site (literature study), lesion: benign tumor, dosed 26 weeks, study length 61 weeks) 7.03 mg/kg/day; (mouse, strain Swiss, females, i.p., site: any site (literature study), lesion: malignant tumor, dosed 26 weeks, study length 61 weeks) 0.807 mg/kg/day; (mouse, strain Swiss, females, i.p., site: lung, lesion: several types, types named in the paper, dosed 26 weeks, study length 61 weeks) 0.595 mg/kg/day; (mouse, strain Swiss, females, i.p., site: spleen, lesion: hemangioendothelioma, dosed 26 weeks, study length 61 weeks) 14.5 mg/kg/day; (mouse, strain Swiss, females, i.p., site: uterus, lesion: adenocarcinoma, dosed 26 weeks, study length 61 weeks) 3.2 mg/kg/day. Further, the TD50 is 13 mg/kg/day (mouse, strain Swiss, males, i.p., site: all sites, lesion: lymphatic leukemia, dosed 26 weeks, study length 78 weeks); 16.1 mg/kg/day (mouse, strain Swiss, males, i.p., site: all sites, lesion: lymphosarcoma, dosed 26 weeks, study length 78 weeks); 10.6 mg/kg/day (mouse, strain Swiss, males, i.p., site: any site (literature study), lesion: benign tumor, dosed 26 weeks, study length 78 weeks); 1.54 mg/kg/day (mouse, strain Swiss, males, i.p., site: any site (literature study), lesion: malignant tumor, dosed 26 weeks, study length 78 weeks); 0.813 mg/kg/day (mouse, strain Swiss, males, i.p., site: any site (literature study), lesion: several types, types named in the paper, dosed 26 weeks, study length 78 weeks); 98.8 mg/kg/day (mouse, strain Swiss, males, i.p., site: liver, lesion: several types, types named in the paper, dosed 26 weeks, study length 78 weeks). Moreover, the TD50 is 2.57 mg/kg/day (mouse, strain Swiss, males, i.p., site: lung, lesion: several types, types named in the paper, dosed 26 weeks, study length 78 weeks); 5.17 mg/kg/day (mouse, strain Swiss, males, i.p., site: spleen, lesion: several types, types named in the paper, dosed 26 weeks, study length 78 weeks); 0.71 mg/kg/day (rat, strain Sprague-Dawley, females, in feed, site: mammary gland, lesion: adenofibroma, dosed 46 weeks, study length 60 weeks); 4.21 mg/kg/day (rat, strain Sprague-Dawley, females, in feed, site: thymus gland, lesion: lymphosarcoma, dosed 46 weeks, study length 60 weeks); 6.55 mg/kg/day (rat, strain Sprague-Dawley, females, in feed, site: uterus, lesion: leiomyosarcoma, dosed 46 weeks, study length 60 weeks).

Take `Nc1ccc2c(n1)[nH]c1ccccc12`: the TD50 was 381 mg/kg/day (mouse, strain CDF1, females, in feed, site: blood vessels, lesion: hemangioendothelial sarcoma, dosed 97 weeks, study length 97 weeks); 44.7 mg/kg/day (mouse, strain CDF1, females, in feed, site: liver, lesion: hepatocellular carcinoma, dosed 97 weeks, study length 97 weeks); 35.6 mg/kg/day (mouse, strain CDF1, females, in feed, site: liver, lesion: several types, types named in the paper, dosed 97 weeks, study length 97 weeks); 795 mg/kg/day (mouse, strain CDF1, females, in feed, site: lung, lesion: adenoma, dosed 97 weeks, study length 97 weeks); 1150 mg/kg/day (mouse, strain CDF1, females, in feed, site: lung, lesion: several types, types named in the paper, dosed 97 weeks, study length 97 weeks); 103 mg/kg/day (mouse, strain CDF1, males, in feed, site: blood vessels, lesion: hemangioendothelial sarcoma, dosed 97 weeks, study length 97 weeks). For the same compound, the TD50 reads like this: (mouse, strain CDF1, males, in feed, site: blood vessels, lesion: several types, types named in the paper, dosed 97 weeks, study length 97 weeks) 82.6 mg/kg/day; (mouse, strain CDF1, males, in feed, site: liver, lesion: hepatocellular adenoma, dosed 97 weeks, study length 97 weeks) 352 mg/kg/day; (mouse, strain CDF1, males, in feed, site: liver, lesion: hepatocellular carcinoma, dosed 97 weeks, study length 97 weeks) 225 mg/kg/day; (mouse, strain CDF1, males, in feed, site: liver, lesion: several types, types named in the paper, dosed 97 weeks, study length 97 weeks) 122 mg/kg/day.
